Experimental findings from patent US7420056B2, “Substituted bicyclic imidazo-3-ylamine compounds” (Gruenenthal GmbH, priority 2004, dated 2008) are described below.

pIC50: −log10 of the molar value. Counter-ions that a name gives are not always drawn.

Sequence of mGluR5 receptor (I3LUI7 19-1212): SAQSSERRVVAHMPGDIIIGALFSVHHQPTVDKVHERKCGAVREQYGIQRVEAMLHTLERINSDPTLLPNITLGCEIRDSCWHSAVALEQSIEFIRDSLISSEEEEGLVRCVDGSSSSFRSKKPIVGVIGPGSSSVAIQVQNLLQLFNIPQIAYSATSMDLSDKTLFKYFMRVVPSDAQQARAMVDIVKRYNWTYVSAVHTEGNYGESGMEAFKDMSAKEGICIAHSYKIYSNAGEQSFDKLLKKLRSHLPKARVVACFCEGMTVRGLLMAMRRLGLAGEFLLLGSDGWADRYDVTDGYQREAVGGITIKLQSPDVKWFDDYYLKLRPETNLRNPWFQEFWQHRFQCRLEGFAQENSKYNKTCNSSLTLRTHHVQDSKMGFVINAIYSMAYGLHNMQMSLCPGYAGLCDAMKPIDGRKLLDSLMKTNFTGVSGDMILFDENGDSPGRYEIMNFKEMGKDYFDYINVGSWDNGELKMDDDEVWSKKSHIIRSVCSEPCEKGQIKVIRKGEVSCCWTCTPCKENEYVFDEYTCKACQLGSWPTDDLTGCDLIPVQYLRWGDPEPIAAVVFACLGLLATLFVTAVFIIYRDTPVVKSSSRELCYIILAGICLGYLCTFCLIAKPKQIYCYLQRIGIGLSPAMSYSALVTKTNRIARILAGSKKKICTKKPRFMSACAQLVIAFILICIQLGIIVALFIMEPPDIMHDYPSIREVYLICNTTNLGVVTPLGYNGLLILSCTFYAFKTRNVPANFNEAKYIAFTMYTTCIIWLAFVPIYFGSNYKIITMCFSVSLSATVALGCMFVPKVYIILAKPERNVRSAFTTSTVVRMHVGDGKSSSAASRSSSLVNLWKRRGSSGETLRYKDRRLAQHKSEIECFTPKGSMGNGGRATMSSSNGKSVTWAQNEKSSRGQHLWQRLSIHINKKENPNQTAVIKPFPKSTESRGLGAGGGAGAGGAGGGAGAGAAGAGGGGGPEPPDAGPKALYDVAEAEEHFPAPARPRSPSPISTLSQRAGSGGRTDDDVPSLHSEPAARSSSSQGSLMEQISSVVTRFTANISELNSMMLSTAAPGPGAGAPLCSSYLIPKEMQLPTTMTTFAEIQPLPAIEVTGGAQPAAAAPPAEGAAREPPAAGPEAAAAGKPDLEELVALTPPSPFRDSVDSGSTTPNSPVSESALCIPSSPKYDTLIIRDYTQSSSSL

The first assay has as its target mGluR5 receptor (Sus scrofa, UniProt I3LUI7). Nature of the assay: Affinity for the mGluR5 receptor: inhibition of 3[H]-MPEP binding in pig brain homogenate. To be noted: 10 μM compound, 5 nM 3[H]-MPEP, read-out: mGluR5 receptor inhibition of ^3[H]-MPEP binding [10 μM] in % at a concentration of the example compounds of 10 μM. The procedure, abridged: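 Pig brain membranes (450 μg protein; hemispheres without medulla, cerebellum and pons) in 30 mM Hepes pH 8.0 were incubated 60 min at room temperature with 5 nM [3H]-MPEP and compound at 10 μM. Bound radioactivity was filtered and counted. Nonspecific binding was defined with 10 μM MPEP.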
As to `C(#Cc1ccc(-c2nc3ncccn3c2NCC2CCCCC2)s1)c1ccccc1` [Example 9, cyclohexylmethyl-[2-(5-phenylethynyl-thiophen-2-yl)-imidazo[1,2-a]pyrimidin-3-yl]-amine], the inhibition at 10 µM amounted to 98%.

For the molecule `COc1cccc(CNc2c(-c3ccc(C#Cc4ccccc4)s3)nc3ccccn23)c1` [Example 25, (3-methoxy-benzyl)-[2-(5-phenylethynyl-thiophen-2-yl)-imidazo[1,2-a]pyridin-3-yl]-amine], the inhibition at 10 µM was determined as 81%.

Regarding `CCCC(C)(C)Nc1c(-c2cc(C#Cc3ccccc3)cs2)nc2c(OCc3ccccc3)cccn12` [Example 220, 8-(benzyloxy)-N-(2-methylpentan-2-yl)-2-(4-(phenylethynyl)thiophen-2-yl)imidazo[1,2-a]pyridin-3-amine], the inhibition at 10 µM amounted to 31%.

Consider `Fc1ccc(CNc2c(-c3ccc(C#Cc4ccccc4)o3)nc3ccc(Cl)cn23)cc1` [Example 221, 6-chloro-N-(4-fluorobenzyl)-2-(5-(phenylethynyl)furan-2-yl)imidazo[1,2-a]pyridin-3-amine], for which the inhibition at 10 µM came to 40%.

Take `CC(C)(C)CC(C)(C)Nc1c(-c2ccc(C#Cc3ccccc3)nc2)nc2ccccn12` [Example 284, 2-(6-(phenylethynyl)pyridin-3-yl)-N-(2,4,4-trimethylpentan-2-yl)imidazo[1,2-a]pyridin-3-amine]: the inhibition at 10 µM is 68%.

Turning to `CCCC(C)(C)Nc1c(-c2ccc(C#Cc3ccccc3)s2)nc2cnccn12` [Example 205, N-(2-methylpentan-2-yl)-2-(5-(phenylethynyl)thiophen-2-yl)imidazo[1,2-a]pyrazin-3-amine], the inhibition at 10 µM was 92%.

Regarding `COc1ccc(CNc2c(-c3ccc(C#Cc4ccccc4)s3)nc3ccc(C)cn23)cc1` [Example 11, (4-methoxy-benzyl)-[6-methyl-2-(5-phenylethynyl-thiophen-2-yl)-imidazo[1,2-a]pyridin-3-yl]-amine], the inhibition at 10 µM amounted to 82%.

Turning to `Cc1cccc(C#Cc2cccc(-c3nc4cccc(C)n4c3NC(C)(C)C)c2)n1` [Example 290, N-tert-butyl-5-methyl-2-(3-((6-methylpyridin-2-yl)ethynyl)phenyl)imidazo[1,2-a]pyridin-3-amine], the inhibition at 10 µM came to 88%.

As to `CC(C)(C)CC(C)(C)Nc1c(-c2cccc(C#Cc3ccccn3)c2)nc2ccc(Cl)cn12` [Example 313, 6-chloro-2-(3-(pyridin-2-ylethynyl)phenyl)-N-(2,4,4-trimethylpentan-2-yl)imidazo[1,2-a]pyridin-3-amine], the inhibition at 10 µM turned out to be 33%.

On to `Cc1cc(C#Cc2ccc(-c3nc4ccccn4c3NC(C)(C)C)s2)ccc1F` [Example 348, N-tert-butyl-2-(5-((4-fluoro-3-methylphenyl)ethynyl)thiophen-2-yl)imidazo[1,2-a]pyridin-3-amine hydrochloride], for which the inhibition at 10 µM was 44%.

With `Cc1ccn2c(NC3CCCCC3)c(-c3ccc(C#Cc4ccccn4)s3)nc2c1` [Example 274, N-cyclohexyl-7-methyl-2-(5-(pyridin-2-ylethynyl)thiophen-2-yl)imidazo[1,2-a]pyridin-3-amine], the inhibition at 10 µM turned out to be 85%.

Regarding `Cc1cccc(C#Cc2cccc(-c3nc4cnccn4c3NC3CCCC3)c2)n1` [Example 249, N-cyclopentyl-2-(3-((6-methylpyridin-2-yl)ethynyl)phenyl)imidazo[1,2-a]pyrazin-3-amine], the inhibition at 10 µM was 80%.

Turning to `COc1ccc(CNc2c(-c3ccc(C#Cc4ccccc4)s3)nc3c(C)cccn23)cc1` [Example 13, (4-methoxy-benzyl)-[8-methyl-2-(5-phenylethynyl-thiophen-2-yl)-imidazo[1,2-a]pyridin-3-yl]-amine], the inhibition at 10 µM turned out to be 96%.

With `CC(C)c1ccn2c(NCc3cccc(C(F)(F)F)c3)c(-c3ccc(C#Cc4ccccc4)s3)nc2c1` [Example 54, [7-isopropyl-2-(5-phenylethynyl-thiophen-2-yl)-imidazo[1,2-a]pyridin-3-yl]-(3-trifluoromethyl-benzyl)-amine], the inhibition at 10 µM is 69%.

On to `Cc1cccc(C#Cc2cccc(-c3nc4cnccn4c3NC3CCCCC3)c2)n1` [Example 251, N-cyclohexyl-2-(3-((6-methylpyridin-2-yl)ethynyl)phenyl)imidazo[1,2-a]pyrazin-3-amine], for which the inhibition at 10 µM is 80%.

Regarding `Cc1nc(C#Cc2ccccc2)ccc1-c1nc2ccccn2c1Nc1ccc(F)cc1` [Example 266, N-(4-fluorophenyl)-2-(2-methyl-6-(phenylethynyl)pyridin-3-yl)imidazo[1,2-a]pyridin-3-amine], the inhibition at 10 µM came out at 63%.

`COc1ccc(CNc2c(-c3ccc(C#Cc4ccccc4)s3)nc3c(OCc4ccccc4)cccn23)cc1` [Example 15, [8-benzyloxy-2-(5-phenylethynyl-thiophen-2-yl)-imidazo[1,2-a]pyridin-3-yl]-(4-methoxy-benzyl)-amine]: the inhibition at 10 µM turned out to be 98%.

In the case of `CC(C)(C)Nc1c(-c2ccc(C#Cc3ccccn3)cc2)nc2ccccn12` [Example 264, N-tert-butyl-2-(4-(pyridin-2-ylethynyl)phenyl)imidazo[1,2-a]pyridin-3-amine], the inhibition at 10 µM turned out to be 83%.

With `C(#Cc1ccccn1)c1cccc(-c2nc3ccccn3c2NC2CCCC2)c1` [Example 260, N-cyclopentyl-2-(3-(pyridin-2-ylethynyl)phenyl)imidazo[1,2-a]pyridin-3-amine], the inhibition at 10 µM came to 64%.

On to `COc1cccc(Nc2c(-c3ccc(C#Cc4ccccc4)s3)nc3cc(C)cc(C)n23)c1` [Example 42, [5,7-dimethyl-2-(5-phenylethynyl-thiophen-2-yl)-imidazo[1,2-a]pyridin-3-yl]-(3-methoxy-phenyl)-amine], for which the inhibition at 10 µM worked out at 93%.

In the case of `CCCC(C)(C)Nc1c(-c2ccc(C#Cc3ccccc3)s2)nc2c(Br)cc(Br)cn12` [Example 236, 6,8-dibromo-N-(2-methylpentan-2-yl)-2-(5-(phenylethynyl)thiophen-2-yl)imidazo[1,2-a]pyridin-3-amine], the inhibition at 10 µM was 66%.

Turning to `C(#Cc1ccc(-c2nc3ccccn3c2NC2CCCCC2)cn1)c1ccccc1` [Example 283, N-cyclohexyl-2-(6-(phenylethynyl)pyridin-3-yl)imidazo[1,2-a]pyridin-3-amine], the inhibition at 10 µM worked out at 82%.

For `COc1ccccc1CNc1c(-c2ccc(C#Cc3ccccc3)s2)nc2nc(C)ccn12` [Example 40, (2-methoxy-benzyl)-[7-methyl-2-(5-phenylethynyl-thiophen-2-yl)-imidazo[1,2-a]pyrimidin-3-yl]-amine], the inhibition at 10 µM amounted to 87%.

In the case of `CCCCNc1c(-c2cc(C#Cc3ccccc3)cs2)nc2ccc(Br)c(C)n12` [Example 222, 6-bromo-N-butyl-5-methyl-2-(4-(phenylethynyl)thiophen-2-yl)imidazo[1,2-a]pyridin-3-amine], the inhibition at 10 µM was 33%.

As to `C(#Cc1csc(-c2nc3ccccn3c2NCC2CCCCC2)c1)c1ccccc1` [Example 208, N-(cyclohexylmethyl)-2-(4-(phenylethynyl)thiophen-2-yl)imidazo[1,2-a]pyridin-3-amine], the inhibition at 10 µM turned out to be 57%.

Take `C(#Cc1csc(-c2nc3cnccn3c2NC2CCCC2)c1)c1ccccc1` [Example 212, N-cyclopentyl-2-(4-(phenylethynyl)thiophen-2-yl)imidazo[1,2-a]pyrazin-3-amine]: the inhibition at 10 µM was determined as 90%.

The same assay, now with this note: 3[H]-MPEP binding.
Take `CCCCCNc1c(-c2ccc(C#Cc3ccccc3)s2)nc2cnccn12` [Example 72, pentyl-[2-(5-phenylethynyl-thiophen-2-yl)-imidazo[1,2-a]pyrazin-3-yl]-amine]: the negative logarithm of the IC50 (pIC50) (commonly the IC50 on a negative log10 scale, so that one unit is a factor of ten) was 5.27.

For the molecule `Cc1ccn2c(NC(C)(C)C)c(-c3ccc(C#Cc4ccccc4)s3)nc2c1` [Example 101, N-tert-butyl-7-methyl-2-(5-(phenylethynyl)thiophen-2-yl)imidazo[1,2-a]pyridin-3-amine], the pIC50 was 5.61.

For `CC(C)(C)Nc1c(-c2ccc(C#Cc3ccc(C#N)cc3)s2)nc2cnccn12` [Example 144, 4-((5-(3-(tert-butylamino)imidazo[1,2-a]pyrazin-2-yl)thiophen-2-yl)ethynyl)benzonitrile hydrochloride], the negative-log IC50 (pIC50) was 5.43.

The molecule `CC(C)(C)Nc1c(-c2ccc(C#Cc3cccc(CN)c3)s2)nc2cnccn12` [Example 154, 2-(5-((3-(aminomethyl)phenyl)ethynyl)thiophen-2-yl)-N-tert-butylimidazo[1,2-a]pyrazin-3-amine] gave a negative logarithm of the IC50 (pIC50) of 6.23.

As to `CC(C)(C)Nc1c(-c2ccc(C#Cc3ccccn3)s2)nc2cnccn12` [Example 77, tert-butyl-[2-(5-pyridin-2-ylethynyl-thiophen-2-yl)-imidazo[1,2-a]pyrazin-3-yl]-amine], the pIC50 was 8.24.

`Cc1cc(C#Cc2ccccn2)sc1-c1nc2cnccn2c1NC(C)(C)C` [Example 183, N-tert-butyl-2-(3-methyl-5-(pyridin-2-ylethynyl)thiophen-2-yl)imidazo[1,2-a]pyrazin-3-amine hydrochloride]: the pIC50 is 6.64.

Molecule `Cc1cccc2nc(-c3ccc(C#Cc4ccccc4)s3)c(NC(C)(C)C)n12` [Example 102, N-tert-butyl-5-methyl-2-(5-(phenylethynyl)thiophen-2-yl)imidazo[1,2-a]pyridin-3-amine] gave a pIC50 of 5.05.

The molecule `CC(C)(C)Nc1c(-c2ccc(C#Cc3cccc(C4OCCO4)c3)s2)nc2ccccn12` [Example 334, tert-butyl-{2-[5-(3-[1,3]dioxolan-2-yl-phenylethynyl)-thiophen-2-yl]-imidazo[1,2-a]pyridin-3-yl}-amine] had a pIC50 of 5.00.

`CC(C)(C)CC(C)(C)Nc1c(-c2ccc(C#Cc3cccnc3)s2)nc2cnccn12` [Example 60, [2-(5-Pyridin-3-ylethynyl-thiophen-2-yl)-imidazo[1,2-a]pyrazin-3-yl]-(1,1,3,3-tetramethyl-butyl)-amine]: the pIC50 was 5.92.
